Assay results reported in US11866430B2, “Naphthyridinone compounds useful as T cell activators” (priority 2018, dated 2024).
Read-outs that look alike come from different tables or passages of the source.

Key:
human DGKα [1] = molecular target: T1, human DGKα (Homo sapiens (Human), UniProt P23743); test: DGKα LIPGLO assay (extruded liposome substrate); type: biochemical
How it was run: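 Human full-length DGKα, His-tagged and produced in Sf9 cells, assayed at 20 nM (4× stock) on extruded liposomes of PS, 0.25 mM DAG and 2.75 mM PC, preincubated 10 min. Reaction started with 300 μM ATP (stock) and ran 1 h in MOPS pH 7.5/MgCl2/CaCl2/DTT buffer.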

[2] = system: pre-activated CD4 T cells and Raji cells; test: Raji CD4 T Cell IL2 Assay; type: cell-based
human DGKα [3] = molecular target: T1, human DGKα; test: biochemical; settings: detergent/lipid micelle substrate; read-out: DGKα IC50
How it was run: (§1)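 Full-length human DGKα or DGKζ (C-terminal His tag, Sf9-expressed; 20 nM 4× stock) was preincubated 10 min at room temperature with PS/DAG octyl glucoside micelles in MOPS pH 7.5 buffer with MgCl2, CaCl2 and DTT. It was then started with ATP (300 uM addition) and run for 1 hr, with ADP-Glo luminescence read-out.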

human DGKζ [4] = molecular target: T2, human DGKζ (Homo sapiens (Human), UniProt Q13574); test: DGKζ assay (detergent/lipid micelle substrate); type: biochemical
How it was run: as §1

human DGKζ [5] = molecular target: T2, human DGKζ; test: DGKζ LIPGLO assay (extruded liposome substrate); type: biochemical
How it was run: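 Recombinant DGKζ (Sf9-expressed, Ni/SEC/SP-purified) preincubated 10 min with extruded 100 nm PC/DAG/PS liposomes in 50 mM MOPS pH 7.5, 100 mM NaCl, 10 mM MgCl2, 1 μM CaCl2, 1 mM DTT. Started with 300 uM ATP solution (stock, pre-addition); 1 hr reaction. ADP-Glo luminescence; IC50 from 11 concentrations.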

[6] = detergent/lipid micelle substrate; read-out: DGKζ IC50
[7] = extruded liposome substrate, read-out: DGKζ LIPGLO IC50

T2 sequence (Q13574 other isoform, or with tags, fused parts or gaps): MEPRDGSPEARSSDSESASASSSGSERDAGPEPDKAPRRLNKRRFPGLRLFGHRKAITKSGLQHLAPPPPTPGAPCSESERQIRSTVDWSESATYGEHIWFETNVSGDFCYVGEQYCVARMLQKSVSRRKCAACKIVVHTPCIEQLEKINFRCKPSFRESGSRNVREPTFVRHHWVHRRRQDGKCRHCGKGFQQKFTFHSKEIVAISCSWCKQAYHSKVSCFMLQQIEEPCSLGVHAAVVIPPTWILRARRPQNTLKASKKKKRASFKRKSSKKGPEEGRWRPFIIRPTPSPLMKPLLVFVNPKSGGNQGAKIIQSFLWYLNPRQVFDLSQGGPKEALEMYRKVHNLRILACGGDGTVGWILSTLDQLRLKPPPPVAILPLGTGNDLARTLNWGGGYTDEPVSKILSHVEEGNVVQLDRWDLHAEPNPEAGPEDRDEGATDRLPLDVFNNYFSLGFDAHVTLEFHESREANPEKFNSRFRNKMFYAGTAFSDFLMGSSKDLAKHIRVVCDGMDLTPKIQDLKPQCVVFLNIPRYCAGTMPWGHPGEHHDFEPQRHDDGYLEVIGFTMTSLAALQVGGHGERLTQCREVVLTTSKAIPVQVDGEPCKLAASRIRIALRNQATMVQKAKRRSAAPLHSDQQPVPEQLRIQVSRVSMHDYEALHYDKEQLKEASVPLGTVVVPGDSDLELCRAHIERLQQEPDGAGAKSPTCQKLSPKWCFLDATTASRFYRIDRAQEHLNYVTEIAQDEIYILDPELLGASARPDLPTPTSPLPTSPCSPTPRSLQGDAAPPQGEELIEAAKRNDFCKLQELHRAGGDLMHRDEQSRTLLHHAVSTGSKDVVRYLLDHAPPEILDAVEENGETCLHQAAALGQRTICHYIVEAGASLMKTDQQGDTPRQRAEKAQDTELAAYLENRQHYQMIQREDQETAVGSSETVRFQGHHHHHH
T1 sequence (P23743 other isoform, or with tags, fused parts or gaps): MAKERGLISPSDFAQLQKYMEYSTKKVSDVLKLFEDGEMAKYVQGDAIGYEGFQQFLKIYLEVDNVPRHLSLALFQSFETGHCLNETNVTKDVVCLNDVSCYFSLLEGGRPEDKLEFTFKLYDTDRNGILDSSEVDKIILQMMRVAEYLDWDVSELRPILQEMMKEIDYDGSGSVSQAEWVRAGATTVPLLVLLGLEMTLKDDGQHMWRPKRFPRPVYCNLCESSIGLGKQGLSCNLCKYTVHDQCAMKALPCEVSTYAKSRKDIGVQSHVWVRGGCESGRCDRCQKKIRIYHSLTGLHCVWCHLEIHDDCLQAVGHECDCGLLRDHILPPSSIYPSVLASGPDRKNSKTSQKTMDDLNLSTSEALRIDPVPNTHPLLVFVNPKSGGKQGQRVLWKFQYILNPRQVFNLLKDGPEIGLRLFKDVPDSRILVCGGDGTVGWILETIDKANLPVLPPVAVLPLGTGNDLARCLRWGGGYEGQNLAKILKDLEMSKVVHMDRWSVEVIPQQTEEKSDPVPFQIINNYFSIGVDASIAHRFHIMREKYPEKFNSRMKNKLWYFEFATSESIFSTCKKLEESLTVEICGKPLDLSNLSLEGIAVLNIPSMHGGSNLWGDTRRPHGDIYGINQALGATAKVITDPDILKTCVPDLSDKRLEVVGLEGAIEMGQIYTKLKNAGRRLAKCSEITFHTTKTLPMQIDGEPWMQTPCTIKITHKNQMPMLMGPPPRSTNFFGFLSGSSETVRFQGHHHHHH

SMILES | IC50 (human DGKα [1]) [nM] | IC50 [2] [nM] | IC50 (human DGKα [3]) [nM] | IC50 (human DGKζ [4]; [6]) [nM] | IC50 (human DGKζ [5]; [7]) [nM] | IC50 ([2]; Homo sapiens, Raji) [nM] | IC50 (human DGKζ [4]; read-out: DGKζ IC50; detergent/lipid micelle substrate) [nM] | IC50 (human DGKζ [5]; DGKζ LIPGLO IC50, extruded liposome substrate) [nM]
C#CCn1c(=O)c([N+](=O)[O-])c(N2CCN(C(c3ccc(F)cc3)c3ccc(F)cc3OC)CC2)c2nc(C#N)ccc21 (single isomer, unassigned) [Example 128, 8-(4-((4-fluoro-2-methoxyphenyl)(4-fluorophenyl)methyl)piperazin-1-yl)-7-nitro-6-oxo-5-(prop-2-yn-1-yl)-5,6-dihydro-1,5-naphthyridine-2-carbonitrile] | 18000 | 100 | 21000 | 1500 | 48 | – | – | –
C#CCn1c(=O)c([N+](=O)[O-])c(N2CCN(C(CC)c3ccc(F)cc3)CC2)c2nc(C#N)ccc21 (single isomer, unassigned) [Example 140, 8-{4-[1-(4-fluorophenyl)propyl]piperazin-1-yl}-7-nitro-6-oxo-5-(prop-2-yn-1-yl)-5,6-dihydro-1,5-naphthyridine-2-carbonitrile] | 2700 | – | 640 | 600 | 130 | 6 | – | –
CC(c1ccc(F)cc1)N1CCN(c2c(C#N)c(=O)n(CC3CC3)c3ccc(Br)nc23)CC1 (single isomer, unassigned) [Example 164, 6-bromo-1-(cyclopropylmethyl)-4-(4-(1-(4-fluorophenyl)ethyl)piperazin-1-yl)-2-oxo-1,2-dihydro-1,5-naphthyridine-3-carbonitrile] | 81000 | 2600 | > 240000 | – | – | – | > 240000 | 59000
CC(C)C(c1ccc(F)cc1)N1CCN(c2c(C#N)c(=O)n(C)c3ccc(Cl)nc23)CC1 (single isomer, unassigned) [Example 316, 6-chloro-4-{4-[1-(4-fluorophenyl)-2-methylpropyl]piperazin-1-yl}-methyl-2-oxo-1,2-dihydro-1,5-naphthyridine-3-carbonitrile] | 250 | 410 | 400 | > 240000 | > 240000 | – | – | –
Cn1c(=O)c([N+](=O)[O-])c(N2CCN(C(c3ccc(F)cc3)c3ccc(F)cc3)CC2)c2ncccc21 [Example 3, 4-(4-(bis(4-fluorophenyl)methyl)piperazin-1-yl)-1-methyl-3-nitro-1,5-naphthyridin-2(1H)-one] | 3800 | – | 2100 | > 240000 | 2300 | 310 | – | –
Cn1c(=O)c(C#N)c(N2CCN(C(c3ccc(F)cc3)C3CC3)CC2)c2nc(Br)ccc21 (stereo not drawn) [Example 35, 6-bromo-4-{4-[cyclopropyl(4-fluorophenyl)methyl]piperazin-1-yl}-1-methyl-2-oxo-1,2-dihydro-1,5-naphthyridine-3-carbonitrile] | 990 | – | 140 | > 240000 | 81000 | 210 | – | –
CCn1ccc2c(CN3CCN(c4c([N+](=O)[O-])c(=O)n(C)c5ccc(Br)nc45)CC3)cccc21 [Example 54, 6-bromo-4-(4-((1-ethyl-H-indol-4-yl)methyl)piperazin-1-yl)-1-methyl-3-nitro-1,5-naphthyridin-2(1H)-one] | 3100 | – | 820 | 7300 | 1300 | 63 | – | –
C#CCn1c(=O)c(C#N)c(N2CCN(Cc3ccccc3O)CC2)c2nc(Br)ccc21 [Example 65, 6-bromo-4-(4-(2-hydroxybenzyl)piperazin-1-yl)-2-oxo-1-(prop-2-yn-1-yl)-1,2-dihydro-1,5-naphthyridine-3-carbonitrile] | 510 | – | 290 | 20000 | 3700 | 5.5 | – | –
C#CCn1c(=O)c(C#N)c(N2CCN(Cc3ccc(C)cc3O)CC2)c2nc(Br)ccc21 [Example 66, 6-bromo-4-(4-(2-hydroxy-4-methylbenzyl)piperazin-1-yl)-2-oxo-1-(prop-2-yn-1-yl)-1,2-dihydro-1,5-naphthyridine-3-carbonitrile] | 230 | – | 84 | 13000 | 1700 | 48 | – | –
C#CCn1c(=O)c(C#N)c(N2CCN(Cc3ccc(F)cc3O)CC2)c2nc(Br)ccc21 [Example 67, 6-bromo-4-(4-(4-fluoro-2-hydroxybenzyl)piperazin-1-yl)-2-oxo-1-(prop-2-yn-1-vi)-1,2-dihydro-1,5-naphthyridine-3-carbonitrile] | 4800 | – | 130 | 13000 | 12000 | 6.6 | – | –
C#CCn1c(=O)c([N+](=O)[O-])c(N2CCN(C(c3ccc(F)cc3)c3ccc(F)cc3)CC2)c2nc(C#N)ccc21 [Example 118, 8-(4-(bis(4-fluorophenyl)methyl)piperazin-1-yl)-7-nitro-6-oxo-5-(prop-2-yn-1-yl)-5,6-dihydro-1,5-naphthyridine-2-carbonitrile] | 1300 | – | 4200 | 230 | 61 | 18 | – | –
CC(c1ccc(F)cc1)N1CCN(c2c([N+](=O)[O-])c(=O)n(CC#N)c3ccc(C#N)nc23)CC1 (stereo not drawn) [Example 151, 5-(cyanomethyl)-8-(4-(1-(4-fluorophenyl)ethyl)piperazin-1-yl)-7-nitro-6-oxo-5,6-dihydro-1,5-naphthyridine-2-carbonitrile] | 7300 | – | 38000 | 27000 | 3100 | 880 | – | –
CC(c1ccc(F)cc1)N1CCN(c2c(C#N)c(=O)n(CC#N)c3ccc(Br)nc23)CC1 (stereo not drawn) [Example 154, 6-bromo-1-(cyanomethyl)-4-(4-(1-(4-fluorophenyl)ethyl)piperazin-1-yl)-2-oxo-1,2-dihydro-1,5-naphthyridine-3-carbonitrile] | 81000 | – | 45000 | > 240000 | 72000 | 880 | – | –
CCC(c1ccc(F)cc1)N1CCN(c2c(C#N)c(=O)n(CC#N)c3ccc(Br)nc23)CC1 (stereo not drawn) [Example 155, 6-bromo-1-(cyanomethyl)-4-(4-(1-(4-fluorophenyl)propyl)piperazin-1-yl)-2-oxo-1,2-dihydro-1,5-naphthyridine-3-carbonitrile] | 71000 | – | 24000 | 230000 | 63000 | 1600 | – | –
N#CCCCn1c(=O)c([N+](=O)[O-])c(N2CCN(C(c3ccccc3)c3ccccc3)CC2)c2ncccc21 [Example 183, 4-(4-(4-benzhydrylpiperazin-1-yl)-3-nitro-2-oxo-1,5-naphthyridin-1(2H)-yl)butanenitrile] | > 240000 | – | 52000 | > 240000 | 21000 | 3200 | – | –
Cn1c(=O)c(C#N)c(N2CCN(Cc3ccc(F)cc3O)CC2)c2nc(Br)ccc21 [Example 192, 6-bromo-4-(4-(4-fluoro-2-hydroxybenzyl)piperazin-1-yl)-1-methyl-2-oxo-1,2-dihydro-1,5-naphthyridine-3-carbonitrile] | 48 | – | 84 | > 240000 | 8100 | 200 | – | –
Cn1c(=O)c(C#N)c(N2CCN(Cc3ccc(F)cc3O)CC2)c2nc(Cl)ccc21 [Example 193, 6-chloro-4-(4-(4-fluoro-2-hydroxybenzyl)piperazin-1-yl)-1-methyl-2-oxo-1,2-dihydro-1,5-naphthyridine-3-carbonitrile] | 89 | – | 220 | > 240000 | 6500 | 130 | – | –
Cc1ccc2c(n1)c(N1CCN(Cc3ccc(F)cc3O)CC1)c(C#N)c(=O)n2C [Example 194, 4-(4-(4-fluoro-2-hydroxybenzyl)piperazin-1-yl)-1,6-dimethyl-2-oxo-1,2-dihydro-1,5-naphthyridine-3-carbonitrile] | 180 | – | 76 | 62000 | 8300 | 440 | – | –
C=CCOc1cc(F)ccc1C(C)N1CCN(c2c(C#N)c(=O)n(C)c3ccc(Cl)nc23)CC1 (stereo not drawn) [Example 195, 4-(4-(1-(2-(allyloxy)-4-fluorophenyl)ethyl)piperazin-1-yl)-6-chloro-1-methyl-2-oxo-1,2-dihydro-1,5-naphthyridine-3-carbonitrile] | 1700 | – | 220 | > 240000 | 98000 | 120 | – | –
Cn1c(=O)c(C#N)c(N2CCN(C(c3ccccc3)c3ccccc3)CC2)c2ncccc21 [Example 196, 4-(4-benzhydrylpiperazin-1-yl)-1-methyl-2-oxo-1,2-dihydro-1,5-naphthyridine-3-carbonitrile] | 2700 | – | 4000 | > 240000 | 43000 | 2100 | – | –
Cn1c(=O)c(C#N)c(N2CCN(Cc3cccc4c3NCC4)CC2)c2nc(Cl)ccc21 [Example 216, 6-chloro-4-(4-(indolin-7-ylmethyl)piperazin-1-yl)-1-methyl-2-oxo-1,2-dihydro-1,5-naphthyridine-3-carbonitrile] | 1200 | – | 1400 | 54000 | 4800 | 64 | – | –
